Laboratory results reported in patent US20040191168A1, “Tumor cell killing by cell cycle checkpoint abrogation combined with Inhibition of the classical mitogen activated protein (map) kinase pathway” (priority 2000, published 2004).

Key:
[1] = test system: U937 cells; experiment: Soft agar clonogenic assay in U937 cells; assay type: cell-based, human; settings: agents alone, UCN-01 150 nM, PD184352 10 μM, 18 h
Protocol: Clonogenic Assay and Cell Proliferation Assays. Colony formation after drug treatment was evaluated using a soft agar cloning assay as described previously (Blasina et al, 1999). Briefly, cells were washed three times with serum-free RPMI medium. Subsequently, 500 cells/well were mixed with RPMI medium con-taining 20% FBS and 0.3% agar and plated on 12-well plates (three wells/ condition). The plates were then transferred to a 37° C./5% CO2, fully humid-ified incubator. After 10 days of incubation, colonies, consisting of groups 5 of 50 cells, were scored using an Olympus Model CK inverted microscope, and colony formation for each condition was calculated in relation to values obtained for untreated control cells. For cell viability assays, CellTiter 96 AQueous One Solution (Promega, Madison, Wis.) was used according to the manufacturer's instructions, and the absorbance at 490 nm was recorded using a 96-well plate reader (Molecular Devices, Sunnyvale, Calif.).

[2] = test system: MDA-MB-231 cells; experiment: TUNEL apoptosis in MDA-MB-231 cells; assay type: cell-based, human; settings: MDA-MB-231, 24 h; with 150 nM UCN-01; PD184352 10 μM, U0126 5 μM; FIG. 8A
Description: Terminal Uridyl-Nucleotide End Labeling (TUNEL) for apoptosis.

[3] = test system: p42/44 MAPK; experiment: Phospho-MAPK immunoblot in U937 cells; assay type: cell-based, human; settings: UCN-01 150 nM, MEK inhibitor coincubated with UCN-01, 2 h to 18 h
Protocol: Immunoblot and Immunoprecipitation Analysis. Whole-cell pellets were lysed by sonication in 1× sample buffer [62.5 mM Tris base (pH6.8), 2% SDS, 50 mM DTT, 10% glycerol, 0.1% bromphenol blue, and […] each chymostatin, leupeptin, aprotinin, pepstatin, and soybean trypsin inhibitor] and boiled for 5 min. For analysis of phospho-proteins, 1 mM each Na vanadate and Na PPi was added to the sample buffer. Protein samples were collected from the supernatant after centrifugation of the samples at 12,800 3 g for 5 min, and protein was quantified using Coomassie Protein Assay Reagent (Pierce, Rock-ford, Ill.). Equal amounts of protein ([…]) were separated by SDS-PAGE and electrotransferred onto a nitrocellulose membrane. For blotting phospho-proteins, no SDS was included in the transfer buffer. The blots were blocked with 5% milk in PBS-Tween 20 (0.1%) at room temperature for 1 h and probed with the appropriate dilution of primary antibody overnight at 4° C. The blots were washed twice in PBS-Tween 20 for 15 min and then incubated with a 1:2000 dilution of horseradish peroxidase-conjugated secondary antibody (Kirkegaard & Perry, Gaithersburg, Md.) in 5% milk/PBS-Tween 20 at room temperature for 1 h. […] Protein samples were centrifuged at 12,800×g for 30 min and quantified. […]

[4] = Phase I and pharmacokinetic studies (Fuse et al., 1999); cited from earlier work
[5] = test system: MCF7 cells; experiment: Colony forming (clonogenic) assay in MCF7 cells; assay type: cell-based, human; settings: 25 μM PD98059, 150 nM UCN-01, replated 48 h, ± SEM
Protocol: (§1) Colony forming (clonogenic) assay. Cells were plated 36 h prior to experimentation. Cells were pre-treated with MEK1/2 inhibitor as indicated, 2 h prior to exposure. Cells were irradiated (2 Gy). After a further 48 h, cells were isolated by tryptic digestion and single cell suspensions plated on Linbro® plates at densities of 500 cells/well and 1000 cells/well. Colony formation was defined as a colony of 50 cells or greater, 10 days after plating.

[6] = test system: T47D cells; experiment: Colony forming (clonogenic) assay in T47D cells; assay type: cell-based, human; settings: mock irradiated, 25 μM PD98059, 150 nM UCN-01, replated 48 h, ± SEM
Protocol: as §1

[7] = test system: MDA-MB-231 cells; experiment: Colony forming (clonogenic) assay in MDA-MB-231 cells; assay type: cell-based, human; settings: MDA-MB-231 (MDA), 25 μM PD98059, 150 nM UCN-01, replated 48 h, ± SEM
Protocol: as §1

SMILES	reduction of clonogenic survival (colony formation) [1]	apoptosis in combination with UCN-01 [2]	phosphorylation (activation) of MAPK [3]	plasma half-life [4]	clonogenic survival (colonies, normalized to control unirradiated cells = 100%) ([5]; MCF7, 2 Gy) [%]	clonogenic survival (colonies, normalized to control unirradiated cells = 100%) ([5]; MCF7, mock irradiated) [%]	clonogenic survival (colonies, normalized to control unirradiated cells = 100%) [6] [%]	clonogenic survival (colonies, normalized to control unirradiated cells = 100%) ([7]; 2 Gy) [%]	clonogenic survival (colonies, normalized to control unirradiated cells = 100%) ([7]; mock irradiated) [%]
O=C(NOCC1CC1)c1ccc(F)c(F)c1Nc1ccc(I)cc1Cl [PD184352]	40%	enhanced apoptosis	essentially complete	–	–	–	–	–	–
CN[C@@H]1C[C@H]2O[C@@](C)([C@@H]1OC)n1c3ccccc3c3c4c(c5c6ccccc6n2c5c31)C(=O)N[C@H]4O [UCN-01, 7-hydroxystaurosporine]	very modest effect	–	induced phosphorylation (activation) of MAPK	very long plasma half-life	44 ± 3	69 ± 6	103 ± 8	55 ± 2	97 ± 3
